Test results published in publication PMC6073568, “Efficient Lead Finding, Activity Enhancement and Preliminary Selectivity Control of Nuclear Receptor Ligands Bearing a Phenanthridinone Skeleton” (International Journal of Molecular Sciences, 2018).
pIC50: −log10 of the molar value.

Molecular target: T1, RORγ (Homo sapiens, UniProt P51449)
T1 construct: expressed in transfected cells; host or cells: HEK293
T1 sequence (P51449 1-518): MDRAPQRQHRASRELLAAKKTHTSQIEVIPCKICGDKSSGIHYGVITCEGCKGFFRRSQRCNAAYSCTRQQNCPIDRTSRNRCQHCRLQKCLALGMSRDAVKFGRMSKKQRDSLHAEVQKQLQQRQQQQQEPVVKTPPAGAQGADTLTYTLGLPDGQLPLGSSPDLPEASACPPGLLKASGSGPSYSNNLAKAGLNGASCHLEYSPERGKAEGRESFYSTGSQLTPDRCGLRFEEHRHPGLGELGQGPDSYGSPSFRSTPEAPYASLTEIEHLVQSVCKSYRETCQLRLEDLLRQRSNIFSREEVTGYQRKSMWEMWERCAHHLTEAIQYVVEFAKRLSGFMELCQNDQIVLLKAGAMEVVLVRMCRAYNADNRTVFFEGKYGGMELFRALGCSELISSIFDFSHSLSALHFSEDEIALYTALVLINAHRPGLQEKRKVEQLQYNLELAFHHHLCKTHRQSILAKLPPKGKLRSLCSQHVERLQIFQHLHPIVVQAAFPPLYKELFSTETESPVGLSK
Experiment: RORγ inverse agonist reporter gene assay in HEK293
Type: cell-based
Conditions: new compound 43, read-out: RORγ inverse agonistic activity (IC50)

Q: How did the pIC50 turn out when O=c1[nH]c2c(Cl)cc(C(O)(C(F)(F)F)C(F)(F)F)cc2c2ccccc12 [Compound 43, 4-Chloro-2-(1,1,1,3,3,3-hexafluoro-2-hydroxypropan-2-yl)phenanthridin-6(5H)-one] was run?
A: < 4.70
